# Source: US20260345603A1, “PRMT5 INHIBITORS” (Beijing Earthwise Technology Co., Ltd., priority 2022, published 2026)
# Tested on: HCT116^MTAP Deletion cells
# Assay: Anti-proliferation assay on cells (CTG, 10 days), HCT116 MTAP Deletion
# Type: cell-based
# Conditions: Homo sapiens, HCT-116, 240 h, anti-proliferative activity, HCT116 MTAP Deletion, 10 days, class symbols; read-out: HCT116^MTAP Deletion GI50
# Protocol: HCT116^MTAD Deletion cells were from Pharmaron (China); HCT116 cells were from ATCC; McCoy's 5A medium was purchased from Invitrogen (USA); penicillin-streptomycin and fetal bovine serum were purchased from Gibco (USA); a 384-well plate was purchased from PerkinElmer (USA); and Cell-Titer Glo reagent was purchased from Promega (USA).
# Compound dissolution: All the compounds were dissolved in dimethyl sulfoxide (DMSO) and then stored. The compounds were stored at room temperature in a dry condition for 3 months for short term storage or at −20 °C for long term storage.
# The cells were cultured strictly in accordance with ATCC requirements. The cell culture medium (McCoy's 5A medium+10% fetal bovine serum+1% penicillin+streptomycin) was transferred to a 15 mL centrifuge tube and centrifuged at 1000 rpm for 5 min. The supernatant was removed. The cells were resuspended with complete culture medium, inoculated into a culture dish at the required density, and cultured in an incubator at 37 °C, 95% humid air, and 5% carbon dioxide. The culture medium was replenished or the cells were passaged every 2-3 days depending on the cell growth condition.
# When the confluency of cells in the culture dish reached about 90%, the cells were washed twice with PBS, and then treated with trypsin to become single cells. The cells were counted, and 40 μl of the cells was inoculated into each well of a 384-well plate (50 cells/well). The plate was equilibrated at 37 °C and 5% carbon dioxide for 10 to 15 minutes. The compounds were injected into the 384-well plate using Echo550, and positive control and negative control (0.1% DMSO) were set up. Each compound was subjected to a 3-fold dilution, resulting in 10 concentration gradients, in duplicate, and the content of DMSO was 0.1%. The 384-well plate was incubated in a cell culture incubator for 10 days.
# Then, 40 μl of cell proliferation assay reagent (CTG) was added to the 384-well plate, and the plate was shaken to mix well. Then, the 384-well plate was incubated at 37 °C and 5% carbon dioxide in the dark for 30 minutes. The data were read using the Envision multifunctional microplate reader. […] According to the different drug concentrations and their corresponding inhibition rates, the GI50 curve was drawn using GraphPad 8.0 software. The data were analyzed, and the final GI50 value was obtained.
row,Structure (SMILES),GI50 [µM]
1,CN(C(=O)C(=O)Nc1cnc(N)c2c1cnn2C)C1COCc2cc(-c3ccnn3C)ccc21 (centres unmarked) [Example 137],≤ 0.01
2,Cc1cc(NC(=O)C(=O)N(Cc2ccc(C#N)cn2)[C@H](C)c2ncccn2)cnc1N [Example 28],1 to 10
3,CN(C(=O)C(=O)Nc1cnc(N)c2c1cnn2C)C1COc2cc(-c3cnn(C4CC4)c3)ccc21 (centres unmarked) [Example 211],≤ 0.01
4,Cc1cc(NC(=O)C(=O)N(Cc2ccc(C(F)(F)F)cn2)[C@H](C)C2CC2)cnc1N [Example 36],0.01 to 0.1
5,Cc1ncc(-c2ccc3c(c2)COCC3N(C)C(=O)C(=O)Nc2cnc(N)c3c2cnn3C)s1 (racemic) [Compound 181],≤ 0.01
6,CN(C(=O)C(=O)Nc1cnc(N)c2c1cnn2C)C1COc2cc(-c3cnc(C4CC4)s3)ccc21 (centres unmarked) [Example 236],≤ 0.01
7,CN(C(=O)C(=O)Nc1cnc(N)c2c1cnn2C)C1COCc2cc(-c3ccnn3C3CC3)ccc21 (racemic) [Compound 241],≤ 0.01
8,CN(C(=O)C(=O)Nc1cnc(N)c2c1cnn2C)C1COc2cc(-c3ccnn3C)ccc21 (racemic) [Compound 192],≤ 0.01
9,CN(C(=O)C(=O)Nc1cnc(N)c2c1cnn2C)C1COCc2cc(-c3cnn(C(F)(F)F)c3)ccc21 (racemic) [Compound 231],≤ 0.01
10,CN(C(=O)C(=O)Nc1cnc(N)c2c1cnn2C)C1COc2cc(Br)ccc21 (racemic) [Compound 180],≤ 0.01
11,Cc1cc(NC(=O)C(=O)N(Cc2ccc(C(F)(F)F)cn2)CC(C)C)cnc1N [Example 37],0.01 to 0.1
12,CN(C(=O)C(=O)Nc1cnc(N)c2c1cnn2C)C1COCc2cc(-c3cnn(C4CC4)c3)ccc21 (racemic) [Compound 223],≤ 0.01
13,[2H]C([2H])([2H])n1ncc2c(NC(=O)C(=O)N(C)C3COc4cc(C(F)(F)F)ccc43)cnc(N)c21 (centres unmarked) [Example 173],0.01 to 0.1
14,C[C@H](c1ncccn1)N(Cc1ccc(C(F)(F)F)cn1)C(=O)C(=O)Nc1cnc(N)c2c1cnn2C [Example 30],0.01 to 0.1
15,Cc1cc(NC(=O)C(=O)N(Cc2ccc(N3CCC(F)(F)C3)cn2)[C@H](C)c2ncccn2)cnc1N [Example 29],0.1 to 1

# More lines, now with the values ahead:
row,GI50 [µM],Structure (SMILES)
1,0.01 to 0.1,Cc1cc(NC(=O)C(=O)N(Cc2ccc(C(F)(F)F)cn2)CC2CCC2)cnc1N [Example 16]
2,0.1 to 1,Nc1ncc(NC(=O)C(=O)N(Cc2ccc(C(F)(F)F)cn2)CC2CCC2)c2c1COC2 [Example 41]
3,1 to 10,C[C@H](c1ncccn1)N(Cc1ccc(C(F)(F)F)cn1)C(=O)C(=O)Nc1cnc(N)c(F)c1 [Example 22]
4,≤ 0.01,CN(C(=O)C(=O)Nc1cnc(N)c2c1cnn2C)C1COc2cc(-c3ccnn3C)ccc21 (centres unmarked) [Example 161]
5,0.1 to 1,CN(C(=O)C(=O)Nc1cnc(N)c2c1cnn2C)C1COc2nc(C(F)(F)F)ccc21 (centres unmarked) [Example 159]
6,0.01 to 0.1,CN(C(=O)C(=O)Nc1cnc(N)c2c1cnn2C)C1COCc2c(F)cc(Cl)cc21 (racemic) [Compound 155]
7,≤ 0.01,CN(C(=O)C(=O)Nc1cnc(N)c2c1cnn2C)C1COc2cc(-c3cnn(C(F)(F)F)c3)ccc21 (centres unmarked) [Example 213]
8,1 to 10,Cc1cc(NC(=O)C(=O)N(C)Cc2ccc(C(F)(F)F)cn2)cnc1N [Example 3]
9,0.1 to 1,CCC(C)N(Cc1ccc(OCC(F)(F)F)nn1)C(=O)C(=O)Nc1cnc(N)c(C)c1 (centres unmarked) [Example 63]
10,≤ 0.01,CN(C(=O)C(=O)Nc1cnc(N)c2c1cnn2C)C1COCc2cc(C3=CCC(F)(F)CC3)ccc21 (centres unmarked) [Example 157]
11,0.1 to 1,C[C@H](C1CC1)N(Cc1ccc(C(F)(F)F)cn1)C(=O)C(=O)Nc1cnc(N)c2c1COC2 [Example 39]
12,0.1 to 1,C[C@H](c1ncccn1)N(Cc1ccc(C(F)(F)F)cn1)C(=O)C(=O)Nc1cnc(N)c2c1CCCC2 [Example 31]

# Same assay, conditions: anti-proliferative activity, HCT116 MTAP Deletion, 10 days, class symbols; read-out: HCT116^MTAP Deletion GI50
row,GI50 [µM],Structure (SMILES)
1,≤ 0.01,CCC(C)N(Cc1ccc(C(F)(F)F)cn1)C(=O)C(=O)Nc1cnc(N)c2c1cnn2C (centres unmarked) [Example 52]
2,≤ 0.01,CN(C(=O)C(=O)Nc1cnc(N)c2c1cnn2C)C1COCc2cc(-c3cnn(C)c3)ccc21 (centres unmarked) [Example 124-P1]
